Data taken from patent EP4786470A1, “METHOD FOR S[…]-CIT LINEAR PRECURSOR WITH HIGH PURITY, AND METHOD FOR PREPARING [18F]FP-CIT BY USING SAME” (The Asan Foundation, priority 2023, dated 2025).
Values joined by “and” are separate entries in the source; they are usually repeats but may differ in a detail not shown here. Identical values can stand only once.

Legend:
[1] = cited from earlier work
[2] = Storage stability of FP-CIT linear precursor in storage solvent (purity over 12 months by HPLC analysis); type: physicochemical
Experimental: HPLC analysis was carried out using the same experimental method and analytic conditions as in Example 1-1, except that the storage temperature was -20°C. […] The purity of the FP-CIT linear precursor over time is summarized in FIG. 4 and the following Table 3.
HPLC analysis was carried out using the same experimental method and analytic conditions as in Example 1-1, except that the storage concentration was 8 mg/mL. […] The purity of the FP-CIT linear precursor over time is summarized in FIG. 5 and the following Table 4.
HPLC analysis was carried out using the same experimental method and analytic conditions as in Example 3-1, except that the storage temperature was -20°C. […] The purity of the FP-CIT linear precursor over time is summarized in FIG. 5 and the following Table 4.

ClCCl [Dichloromethane (DCM), Dichloromethane]
Water solubility (g/100 mL, 20°C) [1]: 1.6 g/100 mL

COC(=O)C1C(c2ccc(I)cc2)CC2CCC1N2CCCOS(C)(=O)=O (stereo not drawn) [FP-CIT linear precursor]
purity of the FP-CIT linear precursor ([2]; CHCl3, 1 mg/mL, -20°C, 0 months (start of storage assumed 100%)): 100.0%
purity of the FP-CIT linear precursor ([2]; CHCl3, 1 mg/mL, -20°C, 3 months): 79.4%
purity of the FP-CIT linear precursor ([2]; CHCl3, 1 mg/mL, -20°C, 5 months): 65% and 65.1%
purity of the FP-CIT linear precursor ([2]; CHCl3, 1 mg/mL, -20°C, 7 months): 57.1%
purity of the FP-CIT linear precursor ([2]; CHCl3, 1 mg/mL, -20°C, 9 months): 53.2%
purity of the FP-CIT linear precursor ([2]; CHCl3, 1 mg/mL, room temperature, 0 months (start of storage assumed 100%)): 100.0%
purity of the FP-CIT linear precursor ([2]; CHCl3, 1 mg/mL, room temperature, 3 months): 60.4%
purity of the FP-CIT linear precursor ([2]; CHCl3, 1 mg/mL, room temperature, 7 months): 2.2%
purity of the FP-CIT linear precursor ([2]; CHCl3, 1 mg/mL, room temperature, 9 months): 0.7%
purity of the FP-CIT linear precursor ([2]; DCM, 1 mg/mL, -20°C, 0 months (start of storage assumed 100%)): 100.0%
purity of the FP-CIT linear precursor ([2]; DCM, 1 mg/mL, -20°C, 3 months): 93.5%
purity of the FP-CIT linear precursor ([2]; DCM, 1 mg/mL, -20°C, 7 months): 73.2%
purity of the FP-CIT linear precursor ([2]; DCM, 1 mg/mL, -20°C, 9 months): 71.3%
purity of the FP-CIT linear precursor ([2]; DCM, 1 mg/mL, room temperature, 0 months (start of storage assumed 100%)): 100.0%
purity of the FP-CIT linear precursor ([2]; DCM, 1 mg/mL, room temperature, 3 months): 47.0%
purity of the FP-CIT linear precursor ([2]; DCM, 1 mg/mL, room temperature, 5 months): 34% and 34.2%
purity of the FP-CIT linear precursor ([2]; DCM, 1 mg/mL, room temperature, 7 months): 30.9%
purity of the FP-CIT linear precursor ([2]; DCM, 1 mg/mL, room temperature, 9 months): 13.1%
purity of the FP-CIT linear precursor ([2]; EA, 1 mg/mL, -20°C, 0 months (start of storage assumed 100%)): 100.0%
purity of the FP-CIT linear precursor ([2]; EA, 1 mg/mL, -20°C, 1 month): 97.5%
purity of the FP-CIT linear precursor ([2]; EA, 1 mg/mL, -20°C, 3 months): 97.4%
purity of the FP-CIT linear precursor ([2]; EA, 1 mg/mL, -20°C, 5 months): 96.7%
purity of the FP-CIT linear precursor ([2]; EA, 1 mg/mL, -20°C, 7 months): 96.4%
purity of the FP-CIT linear precursor ([2]; EA, 1 mg/mL, -20°C, 9 months): 96.4%
purity of the FP-CIT linear precursor ([2]; EA, 1 mg/mL, room temperature, 0 months (start of storage assumed 100%)): 100.0%
purity of the FP-CIT linear precursor ([2]; EA, 1 mg/mL, room temperature, 3 months): 91.2%
purity of the FP-CIT linear precursor ([2]; EA, 1 mg/mL, room temperature, 7 months): 39.8%
purity of the FP-CIT linear precursor ([2]; EA, 1 mg/mL, room temperature, 9 months): 28.4%
purity of the FP-CIT linear precursor ([2]; EA, 8 mg/mL, -20°C, 0 months (start of storage assumed 100%)): 100.0%
purity of the FP-CIT linear precursor ([2]; EA, 8 mg/mL, -20°C, 1 month): 99.3%
purity of the FP-CIT linear precursor ([2]; EA, 8 mg/mL, -20°C, 3 months): 99.0%
purity of the FP-CIT linear precursor ([2]; EA, 8 mg/mL, -20°C, 7 months): 96.7%
purity of the FP-CIT linear precursor ([2]; EA, 8 mg/mL, -20°C, 9 months): 96.4%
purity of the FP-CIT linear precursor ([2]; EA, 8 mg/mL, room temperature, 0 months (start of storage assumed 100%)): 100.0%
purity of the FP-CIT linear precursor ([2]; EA, 8 mg/mL, room temperature, 3 months): 64.3%
purity of the FP-CIT linear precursor ([2]; EA, 8 mg/mL, room temperature, 5 months): 43% and 43.3%
purity of the FP-CIT linear precursor ([2]; EA, 8 mg/mL, room temperature, 7 months): 16.2%
purity of the FP-CIT linear precursor ([2]; EA, 8 mg/mL, room temperature, 9 months): 13.5%
purity of the FP-CIT linear precursor ([2]; THF, 1 mg/mL, -20°C, 0 months (start of storage assumed 100%)): 100.0%
purity of the FP-CIT linear precursor ([2]; THF, 1 mg/mL, -20°C, 1 month): 98.0%
purity of the FP-CIT linear precursor ([2]; THF, 1 mg/mL, -20°C, 3 months): 96.7%
purity of the FP-CIT linear precursor ([2]; THF, 1 mg/mL, -20°C, 7 months): 95.1%
purity of the FP-CIT linear precursor ([2]; THF, 1 mg/mL, -20°C, 9 months): 94.7%
purity of the FP-CIT linear precursor ([2]; THF, 1 mg/mL, room temperature, 0 months (start of storage assumed 100%)): 100.0%
purity of the FP-CIT linear precursor ([2]; THF, 1 mg/mL, room temperature, 3 months): 89.9%
purity of the FP-CIT linear precursor ([2]; THF, 1 mg/mL, room temperature, 7 months): 56.6%
purity of the FP-CIT linear precursor ([2]; THF, 1 mg/mL, room temperature, 9 months): 25.6%
purity of the FP-CIT linear precursor ([2]; THF, 8 mg/mL, -20°C, 0 months (start of storage assumed 100%)): 100.0%
purity of the FP-CIT linear precursor ([2]; THF, 8 mg/mL, -20°C, 1 month): 98.8%
purity of the FP-CIT linear precursor ([2]; THF, 8 mg/mL, -20°C, 3 months): 97.5%
purity of the FP-CIT linear precursor ([2]; THF, 8 mg/mL, -20°C, 7 months): 94.7%
purity of the FP-CIT linear precursor ([2]; THF, 8 mg/mL, -20°C, 9 months): 94.4%
purity of the FP-CIT linear precursor ([2]; THF, 8 mg/mL, -20°C, 12 months): 89% and 89.7%
purity of the FP-CIT linear precursor ([2]; THF, 8 mg/mL, room temperature, 0 months (start of storage assumed 100%)): 100.0%
purity of the FP-CIT linear precursor ([2]; THF, 8 mg/mL, room temperature, 3 months): 72.9%
purity of the FP-CIT linear precursor ([2]; THF, 8 mg/mL, room temperature, 5 months): 30% and 30.4%
purity of the FP-CIT linear precursor ([2]; THF, 8 mg/mL, room temperature, 7 months): 5.5%
purity of the FP-CIT linear precursor ([2]; THF, 8 mg/mL, room temperature, 9 months): 5.5%

CCOC(C)=O [Ethyl acetate (EA), Ethyl acetate]
Water solubility (g/100 mL, 20°C) [1]: 8.3 g/100 mL
